Reference: paper PMC6662551 (Clinical and Translational Science, 2019)
Values joined by “and” are separate entries in the source; they are usually repeats but may differ in a detail not shown here. Equal values may be shown once. Read-outs that look alike come from different tables or passages of the source.

How the values were obtained:
[1] = type: in vivo, human; conditions: for AUClast: 0.25-12 hour; for ratio of mean AUC in SLCO1B1 c.521‐CC to c.521TT: endogenous biomarker; for C0: plasma; for baseline (C0) level: 16 samples
OATP1B1 = type: in vivo, human; conditions: human, plasma, oral; for AUC(0-t): AUClast, 0.25-12 hour; for C0: C0, plasma, baseline
[2] = for AUC(0-t): AUC0→12, text, pravastatin peak only
[3] = pravastatin + cyclosporine, all genotype (N = 16)
[4] = pravastatin + placebo, TT (N = 8)
[5] = pravastatin + placebo, all genotype (N = 16)
[6] = 12 hours after first CsA dose, pravastatin + cyclosporine, all genotype
[7] = baseline, pravastatin + placebo, all genotype
[8] = pravastatin + cyclosporine (N = 16)
[9] = pravastatin + cyclosporine, CC (N = 2)
[10] = pravastatin + cyclosporine, TC (N = 6)
[11] = pravastatin + cyclosporine, TT (N = 8)
[12] = pravastatin + placebo, CC (N = 2)
[13] = pravastatin + placebo, TC (N = 6)

O=C(O)CCCCCCCCCCCCCCC(=O)O [HDA, hexadecanedioic acid]
AUClast [1, 3]: 1,070 ± 357 nM·hour | AUClast [1, 4]: 557 ± 161 nM·h | AUClast [1, 5]: 649 ± 346 nM·h | C0 fold increase, pravastatin plus CsA over pravastatin plus placebo ([1]; CC): 1.0 fold | AUClast fold increase, pravastatin plus CsA over pravastatin plus placebo ([1]; CC (N = 2)): 1.2 fold | Cavg fold increase, pravastatin plus CsA over pravastatin plus placebo ([1]; CC (N = 2)): 1.2 fold | C0 fold increase, pravastatin plus CsA over pravastatin plus placebo ([1]; TC): 1.6 fold | AUClast fold increase, pravastatin plus CsA over pravastatin plus placebo ([1]; TC (N = 6)): 1.7 fold | Cavg fold increase, pravastatin plus CsA over pravastatin plus placebo ([1]; TC (N = 6)): 2.0 fold | C0 fold increase, pravastatin plus CsA over pravastatin plus placebo ([1]; TT): 1.7 fold | AUClast fold increase, pravastatin plus CsA over pravastatin plus placebo ([1]; TT (N = 8)): 2.0 fold | Cavg fold increase, pravastatin plus CsA over pravastatin plus placebo ([1]; TT (N = 8)): 2.2 fold | AUClast fold increase, pravastatin plus CsA over pravastatin plus placebo ([1]; all genotype): 1.8 fold | Cavg fold increase, pravastatin plus CsA over pravastatin plus placebo ([1]; all genotype): 2.0 fold | Cmax fold increase, pravastatin plus CsA over pravastatin plus placebo ([1]; all genotype (N = 16)): 2.1 fold | ratio of mean AUC in SLCO1B1 c.521‐CC to c.521TT [1]: 2.6 fold | C0 [1, 6]: 84 ± 33 nM | C0 [1, 7]: 60.1 ± 37 nM | Cmax [1, 8]: 155 ± 55.1 nM | Cavg [1, 9]: 149 ± 5.0 nM | Cavg [1, 10]: 86.9 ± 33.0 nM | Cavg [1, 11]: 98.5 ± 27.8 nM | Cavg [1, 3]: 100 ± 33.3 nM | Cmax ([1]; pravastatin + placebo (N = 16)): 90.6 ± 77.3 nM | Cavg [1, 12]: 135 ± 46.6 nM | Cavg [1, 13]: 44.0 ± 11.5 nM | Cavg [1, 4]: 46.1 ± 14.3 nM | Cavg [1, 5]: 56.4 ± 35.1 nM and 56.4 ± 35.1****^, ^b nM | increase in plasma concentration, Cmax over baseline ([1]; pravastatin plus placebo, individuals homozygous c.521‐CC): at least twofold | time of peak plasma level ([1]; two individuals c.521‐CC): around 3 hours and 3.0 hours | AUC(0-t) (OATP1B1; [9]): 1.68 µM·h | AUC(0-t) (OATP1B1; [10]): 0.853 ± 0.303 µM·h | AUC(0-t) (OATP1B1; [11]): 1.07 µM·h | AUC(0-t) (OATP1B1; [12]): 1.45 µM·h | AUC(0-t) (OATP1B1; [13]): 0.506 ± 0.116 µM·h | C0 (OATP1B1; pravastatin + placebo, CC): 114 ± 47.5 nM | C0 (OATP1B1; pravastatin + placebo, TC): 43.1 ± 13.4 nM | C0 (OATP1B1; pravastatin + placebo, TT): 52 ± 29.6 nM

CC[C@H](C)C(=O)O[C@H]1C[C@H](O)C=C2C=C[C@H](C)[C@H](CC[C@@H](O)C[C@@H](O)CC(=O)O)[C@H]21 [pravastatin]
Tmax ([2]; human, plasma, oral, 40 mg): 1.5 h | AUC(0-t) ([2]; human, plasma, oral, 40 mg, pravastatin + placebo, TC): 48 ± 23 ng·h/mL | AUC(0-t) ([2]; human, plasma, oral, 40 mg, pravastatin + placebo, c.521‐TT): 43 ± 15 ng·h/mL | CL/F ([2]; human, plasma, oral, pravastatin + cyclosporine, CC (N = 3)): 10.7 mL/min/kg | CL/F ([2]; human, plasma, oral, pravastatin + cyclosporine, TC (N = 8)): 24.2 mL/min/kg | CL/F ([2]; human, plasma, oral, pravastatin + cyclosporine, TT (N = 9)): 24.5 mL/min/kg | CL/F ([2]; human, plasma, oral, pravastatin + cyclosporine, all genotype): 22.3 mL/min/kg | CL/F ([2]; human, plasma, oral, pravastatin + placebo, CC (N = 3)): 27.5 mL/min/kg | CL/F ([2]; human, plasma, oral, pravastatin + placebo, TC (N = 8)): 90.3 mL/min/kg | CL/F ([2]; human, plasma, oral, pravastatin + placebo, TT (N = 9)): 102 mL/min/kg | CL/F ([2]; human, plasma, oral, pravastatin + placebo, all genotype): 86.2 mL/min/kg | ratio of mean AUC0→12 in SLCO1B1 c.521CC and c.521TT ([2]; named peak only): 3.6 fold | Cmax ([2]; named peak only (not combined), pravastatin + placebo, TC (N=8)): 31 ± 19 ng/mL | V/F ([2]; pravastatin + cyclosporine, CC (N = 3)): 0.85 ± 0.70 L/kg | V/F ([2]; pravastatin + cyclosporine, TC (N = 8)): 1.52 ± 0.54 L/kg | V/F ([2]; pravastatin + cyclosporine, TT (N = 9)): 1.92 ± 1.34 L/kg | V/F ([2]; pravastatin + cyclosporine, all genotype): 1.60 ± 1.02 L/kg | V/F ([2]; pravastatin + placebo, CC (N = 3)): 1.94 ± 1.37 L/kg | V/F ([2]; pravastatin + placebo, TC (N = 8)): 9.49 ± 9.08 L/kg | V/F ([2]; pravastatin + placebo, TT (N = 9)): 9.56 ± 8.74 L/kg | V/F ([2]; pravastatin + placebo, all genotype): 8.39 ± 8.39 L/kg

coproporphyrin III [CP‐III]
AUClast [1, 9]: 2.22 ± 0.13 nM·h | AUClast [1, 10]: 1.65 ± 0.60 nM·h | AUClast [1, 11]: 1.56 ± 0.24 nM·h | AUClast [1, 3]: 1.68 ± 0.44 nM·h | AUClast [1, 12]: 1.7 ± 0.013 nM·h | AUClast [1, 13]: 1.0 ± 0.68 nM·h | AUClast [1, 4]: 1.2 ± 0.17 nM·h | baseline (C0) level [1]: below the levels of quantification for 12 of 16 samples | AUClast fold increase, pravastatin plus CsA over pravastatin plus placebo ([1]; CC (N = 2)): 1.2 fold | Cavg fold increase, pravastatin plus CsA over pravastatin plus placebo ([1]; CC (N = 2)): 1.3 fold | AUClast fold increase, pravastatin plus CsA over pravastatin plus placebo ([1]; TC (N = 6)): 3.0 fold | Cavg fold increase, pravastatin plus CsA over pravastatin plus placebo ([1]; TC (N = 6)): 1.7 fold | AUClast fold increase, pravastatin plus CsA over pravastatin plus placebo ([1]; TT (N = 8)): 1.3 fold | Cavg fold increase, pravastatin plus CsA over pravastatin plus placebo ([1]; TT (N = 8)): 1.4 fold | AUClast fold increase, pravastatin plus CsA over pravastatin plus placebo ([1]; all genotype): 1.9 fold and 1.68 ± 0.44 (1.9) fold | Cavg fold increase, pravastatin plus CsA over pravastatin plus placebo ([1]; all genotype): 1.5 fold | Cmax fold increase, pravastatin plus CsA over pravastatin plus placebo ([1]; all genotype (N = 16)): 1.7 fold | C0 [1, 6]: BLOQ in most samples | C0 [1, 7]: BLOQ in most samples | Cmax [1, 8]: 0.24 ± 0.05 nM | Cavg [1, 9]: 0.21 ± 0.008 nM | Cavg [1, 10]: 0.18 ± 0.02 nM | Cavg [1, 11]: 0.15 ± 0.03 nM | Cavg [1, 3]: 0.17 ± 0.03 nM | Cmax ([1]; pravastatin + placebo (N = 16)): 0.15 ± 0.039 nM | Cavg [1, 12]: 0.15 ± 0.004 nM | Cavg [1, 13]: 0.11 ± 0.03 nM | Cavg [1, 4]: 0.11 ± 0.02 nM

coproporphyrin I [CP‐I]
AUClast [1, 9]: 27.6 ± 8.4 nM·h | AUClast [1, 10]: 16.5 ± 5.7 nM·h | AUClast [1, 11]: 11.8 ± 2.3 nM·h | AUClast [1, 3]: 15.5 ± 6.7 nM·h | AUClast [1, 12]: 17.8 ± 3.2 nM·h | AUClast [1, 13]: 9.8 ± 3.3 nM·h | AUClast [1, 4]: 6.9 ± 1.2 nM·h | AUClast [1, 5]: 9.4 ± 4.2 nM·h | baseline (C0) level [1]: below the levels of quantification for 12 of 16 samples | AUClast fold increase, pravastatin plus CsA over pravastatin plus placebo ([1]; CC (N = 2)): 1.5 fold | Cavg fold increase, pravastatin plus CsA over pravastatin plus placebo ([1]; CC (N = 2)): 1.6 fold | AUClast fold increase, pravastatin plus CsA over pravastatin plus placebo ([1]; TC (N = 6)): 1.7 fold | Cavg fold increase, pravastatin plus CsA over pravastatin plus placebo ([1]; TC (N = 6)): 2.0 fold | AUClast fold increase, pravastatin plus CsA over pravastatin plus placebo ([1]; TT (N = 8)): 1.7 fold | Cavg fold increase, pravastatin plus CsA over pravastatin plus placebo ([1]; TT (N = 8)): 1.9 fold | Cavg fold increase, pravastatin plus CsA over pravastatin plus placebo ([1]; all genotype): 1.9 fold | Cmax fold increase, pravastatin plus CsA over pravastatin plus placebo ([1]; all genotype (N = 16)): 2.2 fold | ratio of mean AUC in SLCO1B1 c.521‐CC to c.521TT [1]: 2.6 fold | C0 [1, 6]: BLOQ in most samples | C0 [1, 7]: BLOQ in most samples | Cmax [1, 8]: 2.16 ± 0.71 nM | Cavg [1, 9]: 2.50 ± 0.68 nM | Cavg [1, 10]: 1.67 ± 0.33 nM | Cavg [1, 11]: 1.15 ± 0.28 nM | Cavg [1, 3]: 1.51 ± 0.56 nM | Cmax ([1]; pravastatin + placebo (N = 16)): 1.04 ± 0.45 nM | Cavg [1, 13]: 0.88 ± 0.26 nM | Cavg [1, 4]: 0.6 ± 0.1 nM | Cavg [1, 5]: 0.83 ± 0.36 nM and 0.83 ± 0.36****^, ^b nM
